Reference: patent US20040192665A1 (priority 2002, published 2004)

What was measured:
[1] = experiment 2, I.P. 8 mg/kg once per week
[2] = tested on: DU-145 human prostate tumor cells; test: DU-145 xenograft tumor growth in nude mice; type: in vivo, nude mice (nu/nu); details: experiment 2; I.P. 8 mg/kg once per week; after 5 treatments
Method: Cage were cleaned and bedding changed once weekly. Irradiated corn cob bedding was used. Animals were observed daily and clinical signs were noted.
Morbidity and mortality were monitored daily.
The dosage level was determined by exact body weight.
Five mice per treatment group were tested.
Animals were treated once per week for 5 weeks.

For COc1cccc2c1C(=O)c1c(O)c3c(c(O)c1C2=O)C[C@@](O)(C(=O)CO)C[C@@H]3O[C@H]1C[C@H](N)[C@H](O)[C@H](C)O1 [doxorubicin], the animals survived ([1]; after 5 treatments) was 3/6, the “average group weight in the surviving animals, down by” value ([1]; after the 5th treatment) was 27% and the “tumor volumes less compared to placebo-control tumors” value [2] was 4.4 fold.
